# Results from US11077177B2, “Universal cancer vaccine” (priority 2016, dated 2021).
# Key:
# CD 8+ T cell repertoire = test: Tetramer staining of peripheral blood mononuclear cells by flow cytometry after immunization with an altered peptide (FIG. 3B); type: cell-based
# [1] = system: HLA molecule (types A1, A2, A3, A11, A24, B7 and B44); test: HLA type bound by altered telomerase peptides (Table 1); type: binding, human; conditions: MHC class I HLA type bound by the peptide; no test method described; listed as SEQ ID NO: 13
sequence,measurement,setting,value
YLFFYRKSV (listed as Homo sapiens) [SEQ ID 13],expansion of CD 8+ T cell repertoire cross-reacting with the naturally occurring peptide,CD 8+ T cell repertoire,this approach is feasible
same,HLA TYPE BOUND,[1],HLA-A2
